Reference: publication PMC12249711, “Comprehensive Evaluation of 1H-Isoindole-1,3(2H)-Dione Derivatives: Pharmacokinetic Studies and Analgesic Potential in Various Pain Models” (International Journal of Molecular Sciences, 2025)

Experiments:
[1] = test system: mice; assay: Capsaicin-induced neurogenic pain test; format: in vivo, Albino Swiss mice; conditions: vs vehicle
Procedure: The examined compounds were administered 30 min before the test (n = 112). The pain reaction was induced by injecting 20 μL of a capsaicin solution prepared in saline (1.6 μg capsaicin per mouse paw) into the dorsal surface of the right hind paw for further details. The animals were immediately placed individually into glass beakers and the amount of time spent licking the injected paw was recorded for 5 min with a chronometer.

[2] = test system: rats; assay: Carrageenan-induced mechanical hyperalgesia (pain pressure threshold, Randall-Selitto); format: in vivo, Wistar rats; conditions: for Pain Threshold: mean ± SEM, rats; for Increase in pain threshold: vs control
Procedure: The acute and local inflammation and paw edema was induced by intraplantar (i.pl.) injection of 0.1 mL of 1% carrageenan solution in PBS into the rat’s right hind paw, according to the modified method of Winter and Lence, as described previously; (n = 84). The paw volume was measured using the dislocation of the water column of the plethysmometer (Type a, 7140; Plethysmometer, Ugo Basile, Gemonio, Italy) before (V0) and at 1, 2, and 3 h (V1, V2, V3) after i.pl. carrageenan injection. […] Vehicle (1% Tween 80) was administered by the same route as the tested compounds.
Furthermore, we performed the pain pressure threshold test to assess heightened sensitivity to mechanical stimuli. The experiment was conducted based on the method described by Randall and Selitto [58], with certain modifications. An analgesymeter (AnalgesyMeter 37215, Ugo Basile, Gemonio, Italy) was used to gradually apply increasing pressure (measured in grams) to the plantar surface of the right hind paw of the rat until paw withdrawal occurred. At this point, the intensity of the applied force (in grams) was recorded as the withdrawal threshold. The maximum force intensity was set at 250 g. Carrageenan induces a decrease in the nociceptive threshold in response to a mechanical stimulus, a condition referred to as hyperalgesia. For each rat, paw withdrawal thresholds were recorded both before (0 h) and 1, 2, and 3 h after carrageenan administration (i.e., 3.5 h after intraperitoneal pretreatment with the tested compounds). […] The analgesic effect of the tested compounds was assessed in comparison with the control group (1% Tween 80); the injection was performed intraperitoneally within 30 min of carrageenan administration. An analgesic effect occurs when the compound administered produces a pain response with greater pressure than the control group.

[3] = design: method as in PMID 35396875; conditions: within the tested dose range; cited from earlier work
[4] = design: method as in PMID 35396875; conditions: initial in vivo screening; cited from earlier work
[5] = 10 mg/kg i.p., 0 h (before carrageenan)
[6] = 10 mg/kg i.p., 1 h after carrageenan
[7] = 10 mg/kg i.p., 2 h after carrageenan
[8] = 10 mg/kg i.p., 3 h after carrageenan
[9] = 20 mg/kg i.p., 0 h (before carrageenan)
[10] = 20 mg/kg i.p., 1 h after carrageenan
[11] = 20 mg/kg i.p., 2 h after carrageenan
[12] = 20 mg/kg i.p., 3 h after carrageenan

SMILES | Reduction of capsaicin-induced neurogenic pain ([1]; 5 mg/kg i.p.) | Reduction of capsaicin-induced neurogenic pain ([1]; 10 mg/kg i.p.) | Reduction of capsaicin-induced neurogenic pain ([1]; 20 mg/kg i.p.) | Pain Threshold [2, 5] | Pain Threshold [2, 6] | Pain Threshold [2, 7] | Pain Threshold [2, 8] | Increase in pain threshold ([2]; 10 mg/kg, 1 h) | Increase in pain threshold ([2]; 10 mg/kg, 2 h) | Increase in pain threshold ([2]; 10 mg/kg, 3 h) | Pain Threshold [2, 9] | Pain Threshold [2, 10] | Pain Threshold [2, 11] | Pain Threshold [2, 12] | Increase in pain threshold ([2]; 20 mg/kg, 1 h) | Increase in pain threshold ([2]; 20 mg/kg, 2 h) | Increase in pain threshold ([2]; 20 mg/kg, 3 h) | Effect on locomotor activity / sedation [3] | Activity in central (supraspinal) pain model, hot plate test [4] | Effect on pain threshold (in words) ([2]; 10 mg/kg, over 1–3 h)
O=C1c2ccccc2C(=O)N1CC(O)CN1CCN(c2ccccc2)CC1 (centres unmarked) [Compound F1] | 31.7% | 40.8% | 69.0% | 128.3 ± 1.1 g | 138.3 ± 2.1 g | 142.5 ± 2.1 g | 134.2 ± 2.1 g | 16% | 19.5% | 14.2% | 130.0 ± 2.9 g | 143.3 ± 2.5 g | 148.3 ± 2.8 g | 146.7 ± 1.1 g | 20.2% | 24.4% | 25% | mild sedative effects | – | –
O=C1c2ccccc2C(=O)N1CC(O)CN1CCN(c2cccc(C(F)(F)F)c2)CC1 (centres unmarked) [Compound F3] | – | – | 48.46% | 134.2 ± 2.4 g | 141.7 ± 1.7 g | 142.5 ± 2.1 g | 137.5 ± 1.7 g | 7% | 12.5% | 10% | 135.8 ± 1.5 g | 148.3 ± 3.3 g | 150.8 ± 3.9 g | 148.3 ± 3.1 g | 11.9% | 19% | 18.6% | mild sedative effects | – | –
O=C1c2ccccc2C(=O)N1CC(O)CN1CCN(C(c2ccccc2)c2ccccc2)CC1 (centres unmarked) [Compound F4] | 42% | 33.6% | 57.25% | 131.7 ± 1.7 g | 139.2 ± 2.0 g | 141.7 ± 1.7 g | 139.2 ± 1.2 g | 10.5% | 13.4% | 12.9% | 134.2 ± 1.5 g | 144.2 ± 0.8 g | 145 ± 1.5 g | 140.8 ± 0.8 g | 14.4% | 16% | 14.2% | did not impair locomotor activity | inactive | –
COc1ccccc1N1CCN(CC(O)CN2C(=O)c3ccccc3C2=O)CC1 (centres unmarked) [Compound F2] | 31% | 56% | 74.7% | 132.5 ± 2.1 g | – | 127.5 ± 1.5 ns g | 130 ± 2.6 ns g | – | – | – | 132.5 ± 2.8 g | 147.5 ± 2.5 g | 141.7 ± 1.7 g | 139.2 ± 0.8 g | 10% | 14% | 11.3% | dose-dependent suppression of spontaneous locomotor activity | – | lack of analgesic activity
